Assay results: patent US9133129B2, “Bicyclic compound” (TAKEDA PHARMACEUTICAL COMPANY LIMITED, priority 2011, dated 2015)

System: not given
Assay: not given
Conditions: not given
With CC(=O)N[C@@H](C)COc1ccc2nc(-c3ccc(OCC4CC4)c(F)c3)oc2c1F [Example 37, N-((2S)-1-((2-(4-(cyclopropylmethoxy)-3-fluorophenyl)-7-fluoro-1,3-benzoxazol-6-yl)oxy)propan-2-yl)acetamide] the melting point was 163 to 164 °C.
In the case of COc1cc(-c2nc3cnc(OC[C@H](C)NC(C)=O)cc3o2)cc(F)c1OCC1CC1 [Example 62, N-((2S)-1-((2-(4-(cyclopropylmethoxy)-3-fluoro-5-methoxyphenyl) [1,3]oxazolo[4,5-c]pyridin-6-yl)oxy)propan-2-yl)acetamide], the melting point is reported as 162.9 to 163 °C.
Work on CC(=O)N[C@@H](C)COc1cc2oc(-c3cc(F)c(OCC4CC4)cn3)nc2cn1 [Example 65, N-((2S)-1-((2-(5-(cyclopropylmethoxy)-4-fluoropyridin-2-yl)[1,3]oxazolo[4,5-c]pyridin-6-yl)oxy)propan-2-yl)acetamide] yielded a melting point of 183.3 to 183.4 °C.
For CC(=O)N[C@@H](C)COc1ccc2nc(-c3ccc(OCC4CC4)c(Cl)c3)oc2c1 [Example 29, N-((2S)-1-((2-(3-chloro-4-(cyclopropylmethoxy)phenyl)-1,3-benzoxazol-6-yl)oxy)propan-2-yl)acetamide], the melting point was 156 to 159 °C.

Biological target: T1, human ACC2 (Homo sapiens, UniProt O00763)
T1 construct: made in house; host or cells: SF-9 insect cells, recombinant baculovirus BAC-ACC2 (Nd)
T1 sequence (O00763 117-2458 limits assumed): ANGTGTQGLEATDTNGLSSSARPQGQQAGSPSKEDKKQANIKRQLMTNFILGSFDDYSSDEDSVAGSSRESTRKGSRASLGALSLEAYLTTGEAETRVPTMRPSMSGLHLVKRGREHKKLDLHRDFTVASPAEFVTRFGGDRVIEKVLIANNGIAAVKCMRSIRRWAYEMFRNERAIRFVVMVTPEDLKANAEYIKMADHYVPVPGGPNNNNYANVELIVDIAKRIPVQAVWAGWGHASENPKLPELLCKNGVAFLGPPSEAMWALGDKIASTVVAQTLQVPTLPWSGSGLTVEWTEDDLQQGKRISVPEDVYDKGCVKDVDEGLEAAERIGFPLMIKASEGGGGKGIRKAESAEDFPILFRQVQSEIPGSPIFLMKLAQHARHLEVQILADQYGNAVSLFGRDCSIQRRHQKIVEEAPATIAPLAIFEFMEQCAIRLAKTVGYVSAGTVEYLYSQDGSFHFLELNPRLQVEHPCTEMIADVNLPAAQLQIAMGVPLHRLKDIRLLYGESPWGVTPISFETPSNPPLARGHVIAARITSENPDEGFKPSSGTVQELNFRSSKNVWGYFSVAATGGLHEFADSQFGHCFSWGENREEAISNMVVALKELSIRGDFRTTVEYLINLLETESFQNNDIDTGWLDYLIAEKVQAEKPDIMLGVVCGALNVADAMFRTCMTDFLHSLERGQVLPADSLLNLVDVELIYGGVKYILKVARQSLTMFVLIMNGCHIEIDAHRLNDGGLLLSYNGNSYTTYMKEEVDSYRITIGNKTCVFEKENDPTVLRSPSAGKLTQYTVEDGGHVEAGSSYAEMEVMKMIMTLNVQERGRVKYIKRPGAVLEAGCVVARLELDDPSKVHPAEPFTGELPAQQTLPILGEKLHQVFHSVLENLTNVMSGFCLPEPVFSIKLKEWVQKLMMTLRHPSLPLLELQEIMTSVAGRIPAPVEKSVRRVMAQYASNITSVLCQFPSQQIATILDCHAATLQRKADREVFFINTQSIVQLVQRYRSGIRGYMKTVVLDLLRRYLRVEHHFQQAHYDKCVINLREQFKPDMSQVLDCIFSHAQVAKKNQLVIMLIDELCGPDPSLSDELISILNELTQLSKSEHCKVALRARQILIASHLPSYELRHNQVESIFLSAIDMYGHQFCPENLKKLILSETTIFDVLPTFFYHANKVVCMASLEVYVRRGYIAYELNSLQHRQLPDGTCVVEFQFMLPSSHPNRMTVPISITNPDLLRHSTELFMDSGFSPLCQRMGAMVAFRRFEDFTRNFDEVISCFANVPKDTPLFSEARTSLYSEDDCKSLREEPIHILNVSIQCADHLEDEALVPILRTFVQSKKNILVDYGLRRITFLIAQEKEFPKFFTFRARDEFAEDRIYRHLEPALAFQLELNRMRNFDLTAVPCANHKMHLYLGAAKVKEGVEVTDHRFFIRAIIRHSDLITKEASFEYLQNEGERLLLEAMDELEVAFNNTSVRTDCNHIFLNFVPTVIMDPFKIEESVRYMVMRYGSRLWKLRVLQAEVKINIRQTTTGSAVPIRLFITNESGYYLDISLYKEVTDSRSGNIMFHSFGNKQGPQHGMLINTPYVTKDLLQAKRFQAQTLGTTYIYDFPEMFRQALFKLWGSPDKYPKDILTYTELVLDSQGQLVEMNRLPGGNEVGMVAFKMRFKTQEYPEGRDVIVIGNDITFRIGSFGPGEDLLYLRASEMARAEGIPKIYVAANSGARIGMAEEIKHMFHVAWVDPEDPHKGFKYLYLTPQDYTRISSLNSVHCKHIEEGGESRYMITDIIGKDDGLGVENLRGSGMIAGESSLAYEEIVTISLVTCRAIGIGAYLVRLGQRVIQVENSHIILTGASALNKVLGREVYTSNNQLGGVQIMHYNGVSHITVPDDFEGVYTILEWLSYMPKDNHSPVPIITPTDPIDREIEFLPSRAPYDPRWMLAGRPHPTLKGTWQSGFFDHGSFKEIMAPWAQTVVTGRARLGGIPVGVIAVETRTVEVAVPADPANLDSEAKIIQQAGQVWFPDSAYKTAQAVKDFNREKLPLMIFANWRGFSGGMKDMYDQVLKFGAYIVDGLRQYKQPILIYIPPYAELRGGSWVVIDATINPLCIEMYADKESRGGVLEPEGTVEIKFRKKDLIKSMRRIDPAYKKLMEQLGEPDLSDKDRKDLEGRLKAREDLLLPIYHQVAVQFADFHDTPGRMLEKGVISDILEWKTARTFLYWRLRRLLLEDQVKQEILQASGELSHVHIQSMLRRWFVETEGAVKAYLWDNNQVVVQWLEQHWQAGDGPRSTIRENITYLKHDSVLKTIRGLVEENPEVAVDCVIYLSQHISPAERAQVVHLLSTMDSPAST
Assay: ACC2 inhibitory activity, malachite green assay with recombinant ACC2 (Nd)
Format: biochemical
Conditions: 1 μM of the test compound; read-out: ACC2 inhibitory rates (%) at 1 μM
Experimental: The ACC2 inhibitory action of the compound of the present invention was evaluated by the following method.
(1) Cloning of Human ACC2 Gene and Preparation of Recombinant Baculovirus
Human ACC2 gene was cloned by PCR using a human skeletal muscle cDNA library (Clontech) as a template and Primer 1 and Primer 2 shown below. Primer 1 and Primer 2 were prepared by adding SalI, XbaI restriction enzyme recognition sequences based on the information of the base sequence of human ACC2 gene (Genbank Accession U89344).
(§1) PCR was performed using Pyrobest DNA polymerase (TAKARA BIO INC.). The obtained PCR product was cloned to pT7 Blue vector (Novagen) and after confirmation of the base sequence, digested with restriction enzymes SalI and XbaI. The obtained DNA fragment was inserted into pFAST-BacHTa (Invitrogen) digested with restriction enzymes SalI and XbaI to give expression plasmid ACC2/pFAST-BacHTa.
A plasmid for expression of ACC2 without a mitochondrial targeting sequence was prepared by PCR using the expression plasmid as a template, and Primer 3 (SalI restriction enzyme recognition sequence was added) and Primer 4, which are prepared by reference to the information of human ACC2 gene base sequence (Genbank Accession U89344).
as §1, with “Pyrobest-DNA” for “Pyrobest DNA”, “AflII.” for “XbaI.”, “ACC2/pFAST-BacHTa” for “pFAST-BacHTa (Invitrogen)”, “AflII” for “XbaI”, “ACC2mito7/pFAST-BacHTa.” for “ACC2/pFAST-BacHTa.”
Using the expression plasmid ACC2mito7/pFAST-BacHTa and BAC-TO-BAC Baculovirus Expression System (Invitrogen), virus stock BAC-ACC2 of recombinant Baculovirus (N terminal deleted (hereinafter Nd)) was prepared.
(2) Preparation of ACC2 (Nd) Protein
SF-9 cells (Invitrogen) were inoculated to a medium (10 L) for insect cells (Sf-900IISFM medium (Invitrogen) containing 5% fetal bovine serum (Trace), 50 mg/L Gentamicin (Wako), 0.1% Pluronic F-68 (Invitrogen)) at 1.0×10^6 cells/mL, and cultured with shaking in Wave Bioreactor (GE Health Care) at 27° C., 20 rpm, rocking angle 10°, oxygen concentration 30%.
On day 2 of the culture, recombinant Baculovirus BAC-ACC2 (Nd) was added, and the cells were cultured for 3 days. The culture medium was centrifuged at 1000×g for 10 min to give virus-infected cells. The cells were washed with phosphate buffered saline (Invitrogen) and centrifuged under the same conditions. The obtained cells were cryopreserved at −80° C.
The cryopreserved cells were thawed in ice and suspended in 900 mL of 25 mM HEPES buffer (pH 7.5) containing 10% Glycerol, 0.3 M NaCl, 1 mM EDTA, 25 mM Sodium β-Glycerophosphate and 1 mM Sodium Orthovanadate, and supplemented with Complete Protease Inhibitor (Roche). The obtained suspension was homogenized three times in a polytron homogenizer (Kinematica) at 20,000 rpm for 30 sec. The obtained cell disruption solution was clarified by centrifugation at 186000×g for 60 min. To the supernatant was added 5 mL of AF-chelate 650M Ni chelated carrier (TOSOH), and the mixture was rotated at 4° C. for 1 hr, and centrifuged at 1000×g for 5 min, and the carrier was transferred to opened column. The column was washed with 50 mL of buffer A (50 mM HEPES (pH 7.5) containing 0.3 M NaCl), further washed with buffer A containing 20 mM Imidazole, and eluted with buffer A containing 250 mM Imidazole. The eluate was concentrated with Amicon Ultra 15 (Millipore) with a molecular weight cut off of 50K. The obtained concentrate was filtered using gelfiltration column (HiLoad 26/60 Superdex200 prep grade) (GE Health Care) with 50 mM HEPES buffer (pH 7.5) containing 10 mM MgCl2, 2 mM Dithiothreitol, 10 mM Tripotassium Citrate and 0.3 M NaCl to give ACC2 (Nd). The obtained ACC2 (Nd) was cryopreserved at −80° C.
(3) Measurement of ACC2 Inhibitory Activity […]
Compound COc1cc(-c2nc3cnc(OC[C@H](C)NC(C)=O)cc3o2)cc(F)c1OCC1CC1 [Example 62, N-((2S)-1-((2-(4-(cyclopropylmethoxy)-3-fluoro-5-methoxyphenyl) [1,3]oxazolo[4,5-c]pyridin-6-yl)oxy)propan-2-yl)acetamide] has an inhibition at 1 µM of 90%.
CC(=O)N[C@@H](C)COc1cc2oc(-c3cc(F)c(OCC4CC4)cn3)nc2cn1 [Example 65, N-((2S)-1-((2-(5-(cyclopropylmethoxy)-4-fluoropyridin-2-yl)[1,3]oxazolo[4,5-c]pyridin-6-yl)oxy)propan-2-yl)acetamide] showed an inhibition at 1 µM of 95%.
CC(=O)N[C@@H](C)COc1cc2oc(-c3ccc(OC[C@H]4CC4(F)F)c(F)c3)nc2cn1 [Example 69, N-((2S)-1-((2-(4-(((1R)-2,2-difluorocyclopropyl)methoxy)-3-fluorophenyl) [1,3]oxazolo[4,5-c]pyridin-6-yl)oxy)propan-2-yl)acetamide] gave an inhibition at 1 µM of 98%.

Same assay, conditions: 10 μM of the test compound; 10 µM
In the case of CC(=O)NC(C)COC1CCc2oc(-c3ccc(OCC4CC4)c(F)c3)nc2C1 (stereo not shown) [Example 51d, N-(1-((2-(4-(cyclopropylmethoxy)-3-fluorophenyl)-4,5,6,7-tetrahydro-1,3-benzoxazol-5-yl)oxy)propan-2-yl)acetamide], the “ACC2 inhibitory rates (%) at 10 μM” value is reported as 95%.
With CC(=O)N[C@@H](C)COc1cc2oc(-c3cc(F)c(OCC4CC4(F)F)c(F)c3)nc2cn1 (stereo partly drawn) [Example 86, N-((2S)-1-((2-(4-((2,2-difluorocyclopropyl)methoxy)-3,5-difluorophenyl)[1,3]oxazolo[4,5-c]pyridin-6-yl)oxy)propan-2-yl)acetamide] the “ACC2 inhibitory rates (%) at 10 μM” value was 89%.

Same assay, conditions: 10 μM of the test compound; read-out: ACC2 inhibitory rates (%) at 10 μM
Compound CC(=O)N[C@@H](C)COc1cc2oc(-c3cnc(OCC4CC4)c(Cl)c3)nc2cn1 [Example 35, N-((2S)-1-((2-(5-chloro-6-(cyclopropylmethoxy)pyridin-3-yl)[1,3]oxazolo[4,5-c]pyridin-6-yl)oxy)propan-2-yl)acetamide] has an inhibition at 10 µM of 83%.
With CC(=O)N[C@@H](C)COc1cc2oc(-c3ccc(OCC4CC4)cc3C)nc2cn1 [Example 117, N-((2S)-1-((2-(4-(cyclopropylmethoxy)-2-methylphenyl)[1,3]oxazolo[4,5-c]pyridin-6-yl)oxy)propan-2-yl)acetamide] the inhibition at 10 µM was 101%.
With CC(=O)N[C@@H](C)COc1ccc2nc(-c3ccc(OCC4CC4)c(F)c3)oc2c1F [Example 37, N-((2S)-1-((2-(4-(cyclopropylmethoxy)-3-fluorophenyl)-7-fluoro-1,3-benzoxazol-6-yl)oxy)propan-2-yl)acetamide] the inhibition at 10 µM was 90%.
Compound CC(=O)N[C@@H](C)COc1cc2oc(-c3ccc(OCC4CC4(F)F)c(F)c3)nc2cn1 (stereo partly drawn) [Example 49, N-((2S)-1-((2-(4-((2,2-difluorocyclopropyl)methoxy)-3-fluorophenyl)[1,3]oxazolo[4,5-c]pyridin-6-yl)oxy)propan-2-yl)acetamide] has an inhibition at 10 µM of 94%.
In the case of CC(=O)N[C@@H](C)COc1ncc2nc(-c3ccc(OCC4CC4(F)F)cc3)oc2n1 (stereo partly drawn) [Example 136, N-((2S)-1-((2-(4-((2,2-difluorocyclopropyl)methoxy)phenyl) [1,3]oxazolo[5,4-d]pyrimidin-5-yl)oxy)propan-2-yl)acetamide], the inhibition at 10 µM is reported as 84%.
Compound CC(=O)N[C@@H](C)COc1cc2oc(-c3cc(F)c(OCC4CC4(F)F)c(F)c3)nc2cn1 (stereo partly drawn) [Example 131, N-((2S)-1-((2-(4-((2,2-difluorocyclopropyl)methoxy)-3,5-difluorophenyl)[1,3]oxazolo[4,5-c]pyridin-6-yl)oxy)propan-2-yl)acetamide] has an inhibition at 10 µM of 96%.
With CC(=O)N[C@@H](C)COc1cc2oc(-c3ccc(OCC4(C)CC4(F)F)c(F)c3)nc2cn1 (stereo partly drawn) [Example 159, N-((2S)-1-((2-(4-((2,2-difluoro-1-methylcyclopropyl)methoxy)-3-fluorophenyl)[1,3]oxazolo[4,5-c]pyridin-6-yl)oxy)propan-2-yl)acetamide] the inhibition at 10 µM was 80%.
Compound CC(=O)N[C@@H](C)COc1cc2oc(-c3cnc(OCC4CC4)cc3C)nc2cn1 [Example 122, N-((2S)-1-((2-(6-(cyclopropylmethoxy)-4-methylpyridin-3-yl)[1,3]oxazolo[4,5-c]pyridin-6-yl)oxy)propan-2-yl)acetamide] has an inhibition at 10 µM of 84%.
CC(=O)N[C@@H](C)COc1cc(F)c2nc(-c3ccc(OCC4CC4)c(F)c3)oc2c1 [Example 43, N-((2S)-1-((2-(4-(cyclopropylmethoxy)-3-fluorophenyl)-4-fluoro-1,3-benzoxazol-6-yl)oxy)propan-2-yl)acetamide] showed an inhibition at 10 µM of 92%.
Work on CC(=O)N[C@@H](C)COc1ncc2nc(-c3cc(F)c(OC[C@H]4CC4(F)F)c(F)c3)oc2n1 [Example 167, N-((2S)-1-((2-(4-(((1R)-2,2-difluorocyclopropyl)methoxy)-3,5-difluorophenyl)[1,3]oxazolo[5,4-d]pyrimidin-5-yl)oxy)propan-2-yl)acetamide] yielded an inhibition at 10 µM of 81%.
Compound CC(=O)NC(C)COC1CCc2oc(-c3ccc(OCC4CC4)c(F)c3)nc2C1 (stereo not shown) [Example 51c, N-(1-((2-(4-(cyclopropylmethoxy)-3-fluorophenyl)-4,5,6,7-tetrahydro-1,3-benzoxazol-5-yl)oxy)propan-2-yl)acetamide] has an inhibition at 10 µM of 84%.
In the case of CC(=O)N[C@@H](C)COc1cc2oc(-c3cc(F)c(OCC4CC4)c(F)c3)nc2cn1 [Example 47, N-((2S)-1-((2-(4-(cyclopropylmethoxy)-3,5-difluorophenyl)[1,3]oxazolo[4,5-c]pyridin-6-yl)oxy)propan-2-yl)acetamide], the inhibition at 10 µM is reported as 91%.
C[C@@H](COc1ccc2nc(-c3ccc(OCC4CC4)c(F)c3)oc2c1)NC(=O)N(C)C [Example 10, 3-((2S)-1-((2-(4-(cyclopropylmethoxy)-3-fluorophenyl)-1,3-benzoxazol-6-yl)oxy)propan-2-yl)-1,1-dimethylurea] showed an inhibition at 10 µM of 91%.
CC(=O)N[C@@H](C)COc1cc2oc(-c3ncc(OC[C@H]4CC4(F)F)cc3Cl)nc2cn1 [Example 163, N-((2S)-1-((2-(3-chloro-5-(((1R)-2,2-difluorocyclopropyl)methoxy)pyridin-2-yl)[1,3]oxazolo[4,5-c]pyridin-6-yl)oxy)propan-2-yl)acetamide] gave an inhibition at 10 µM of 93%.
In the case of CC(=O)N[C@@H](C)COc1ccc2nc(-c3ccc(OCC4CC4(F)F)c(F)c3)oc2c1F (stereo partly drawn) [Example 80, N-((2S)-1-((2-(4-((2,2-difluorocyclopropyl)methoxy)-3-fluorophenyl)-7-fluoro-1,3-benzoxazol-6-yl)oxy)propan-2-yl)acetamide], the inhibition at 10 µM is reported as 89%.
In the case of CC(=O)N[C@@H](C)COc1cc2oc(-c3ncc(OCC4CC4)cc3C)nc2cn1 [Example 120, N-((2S)-1-((2-(5-(cyclopropylmethoxy)-3-methylpyridin-2-yl)[1,3]oxazolo[4,5-c]pyridin-6-yl)oxy)propan-2-yl)acetamide], the inhibition at 10 µM is reported as 96%.
